Measured values taken from patent US12161648B2, “Covalent targeting of E3 ligases” (The Regents of the University of California, priority 2018, dated 2024).
One block for each molecule: values may come before it.

How the values were obtained:
[1] = tested on: 231MFP cells; test: Survival and proliferation assay (Hoechst stain), 231MFP; type: cell-based, human; details: 48 h
Experimental: Survival and Proliferation Assays. Cell survival and proliferation assays were performed as previously described using Hoechst 33342 dye (Invitrogen) according to manufacturer's protocol and as previously described^62. 231MFP cells were seeded into 96-well plates (40,000 for survival and 20,000 for proliferation) in a volume of 150 μl and allowed to adhere overnight. Cells were treated with an additional 50 μL of media containing 1:250 dilution of 1000× compound stock in DMSO. After the appropriate incubation period, media was removed from each well and 100 μl of staining solution containing 10% formalin and Hoechst 33342 dye was added to each well and incubated for 15 min in the dark at room temperature. After incubation, staining solution was removed, and wells were washed with PBS before imaging.
Survival and Proliferation Assays. Cell survival and proliferation assays were performed as previously described using Hoechst 33342 dye (Invitrogen) according to manufacturer's protocol and as previously described^14. 231MFP cells were seeded into 96-well plates (40,000 for survival and 20,000 for proliferation) in a volume of 150 μl and allowed to adhere overnight. Cells were treated with an additional 50 μL of media containing 1:250 dilution of 1000× compound stock in DMSO. […]

[2] = tested on: RNF114; test: RNF114 ubiquitination assay; type: biochemical, human; details: 50 μM, wild-type or C8A mutant RNF114
Experimental: RNF114 ubiquitination assay. Recombinant Myc-Flag-RNF114 proteins were either purified from HEK292T cells as described above or purchased from Origene (Origene Technologies Inc., TP309752). For in vitro auto-ubiquitination assay, 0.2 μg of RNF114 in 25 μL of TBS was pre-incubated with DMSO vehicle or the covalently-acting compound for 30 min at room temperature. Subsequently, 0.1 μg of UBE1 (Boston Biochem. Inc, E-305), 0.1 μg UBE2D1 (Boston Bichem. Inc, e2-615), 5 μg of Flag-ubiquitin (Boston Bichem. Inc, u-120) in a total volume of 25 μL Tris buffer containing 2 mM ATP were added to achieve a final volume of 50 μL. The mixture was incubated at 37° C. with agitation for 1.5 h. 20 μL of Laemmli's buffer was added to quench the reaction and proteins were analyzed by western blot assay.

[3] = biological target: T1, RNF114 (Homo sapiens, UniProt Q9Y508); test: Gel-based ABPP, competition against JNS27 labeling of pure RNF114; type: binding; details: covalent ligands 50 μM
T1 construct: Myc; FLAG; purchased Origene
T1 sequence (Q9Y508 whole entry): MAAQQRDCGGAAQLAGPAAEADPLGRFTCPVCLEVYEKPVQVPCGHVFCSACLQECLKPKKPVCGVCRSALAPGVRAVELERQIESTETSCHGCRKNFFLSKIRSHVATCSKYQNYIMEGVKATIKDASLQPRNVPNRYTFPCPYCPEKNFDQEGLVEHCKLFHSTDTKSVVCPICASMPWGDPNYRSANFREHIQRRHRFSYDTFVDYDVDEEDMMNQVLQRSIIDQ
Experimental: (§1) Gel-Based ABPP. Gel-based ABPP methods were performed as previously described^34,62,63,67. Recombinant pure human proteins were purchased from Origene. […] CuAAC was performed to append rhodamine-azide (1 μM final concentration) onto alkyne probe-labeled proteins. Samples were then diluted with 20 μL of 4× reducing Laemmli SDS sample loading buffer (Alfa Aesar) and heated at 90° C. for 5 min. The samples were separated on precast 4-20% TGX gels (Bio-Rad Laboratories, Inc.). Prior to scanning by ChemiDoc MP (Bio-Rad Laboratories, Inc), gels were fixed in a solution of 10% acetic acid, 30% ethanol for 2 hrs. Inhibition of target labeling was assessed by densitometry using ImageJ.
as §1, with “described^14.” for “described^34,62,63,67.”

[4] = tested on: 231MFP breast cancer cell proteomes; test: isoTOP-ABPP proteome-wide selectivity in 231MFP proteomes in vitro; type: binding, human; details: 50 μM
[5] = tested on: 231MFP tumor xenograft; test: 231MFP tumor xenograft growth in SCID mice; type: in vivo; details: 50 mg/kg ip, once per day, from day 17
Experimental: Tumor xenograft studies. Human tumor xenografts were established by transplanting cancer cells ectopically into the flank of female C.B17 severe combined immunodeficiency (SCID) mice (Taconic Farms) as previously described^66,69 In brief, cells were washed with PBS, trypsinized, and harvested in serum-containing medium. Harvested cells were washed in serum-free media and resuspended in serum-free media at a concentration of 2.0×10^4 cells/μl, and 100 μl was injected subcutaneously into the flank of each mouse. Tumors were measured with calipers. Animal experiments were conducted in accordance with the guidelines of the Institutional Animal Care and Use Committees of the University of California, Berkeley.

[6] = biological target: T2, RNF4 (Homo sapiens, UniProt P78317); test: Gel-based ABPP, competition against IA-rhodamine labeling of pure RNF4; type: binding
T2 construct: purchased Boston Biochem K-220
T2 sequence (P78317 1-190): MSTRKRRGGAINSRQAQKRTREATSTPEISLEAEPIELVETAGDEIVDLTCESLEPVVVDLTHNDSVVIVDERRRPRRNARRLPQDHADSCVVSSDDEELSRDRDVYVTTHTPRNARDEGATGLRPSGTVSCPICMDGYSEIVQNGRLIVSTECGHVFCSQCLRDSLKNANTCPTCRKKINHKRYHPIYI
Experimental: Gel-Based ABPP. Gel-based ABPP methods were performed as previously described^5,6,25,26. Pure recombinant human RNF4 was purchased from Boston Biochem (K-220). RNF4 (0.25 μg) was diluted into 50 μL of PBS and 1p L of either DMSO (vehicle) or covalently acting small molecule to achieve the desired concentration. After 30 minutes at room temperature, the samples were treated with 250 nM IA-Rhodamine (Setareh Biotech, 6222, prepared in anhydrous DMSO) for 1 h at room temperature. Samples were then diluted with 20 μL of 4× reducing Laemmli SDS sample loading buffer (Alfa Aesar) and heated at 90° C. for 5 min. The samples were separated on precast 4-20% Criterion TGX gels (Bio-Rad Laboratories, Inc.). Fluorescent imaging was performed on a ChemiDoc MP (Bio-Rad Laboratories, Inc) inhibition of target labeling was assessed by densitometry using ImageJ.

[7] = biological target: T2, RNF4; test: RNF4 in vitro auto-ubiquitination assay; type: biochemical; details: 100 μM pre-incubation
Experimental: RNF4 ubiquitination assay. […] Subsequently, UBE1 (50 nM, Boston Biochem, E-305), UBE2D1 (400 nM Boston Bichem, E2-615), Flag-ubiquitin (4000 nM, Boston Biochem, U-120) and ATP (200 μM) were added in ubiquitination assay buffer bring the total volume to 30 μL. The mixture was incubated at RT for 30 min before quenching with 10 μL of 4× Laemmli's buffer. Ubiquitination activity was measured by separation on an SDS-PAGE gel and western blotting as previously described.

[8] = biological target: T2, RNF4; test: LC-MS/MS analysis of covalent adduct on RNF4; type: binding; details: 50 μM, 30 min, tryptic digests
Experimental: LC-MS/MS analysis of RNF4. Purified RNF4 (10 μg) was diluted into 80 μL of PBS and treated for 30 min with DMSO or compound (50 μM). […] The samples were precipitated by additional of 20 μL of 100% (w/v) TCA and combined pairwise before cooling to −80 C for one hour.

[9] = biological target: T1, RNF114; test: Gel-based ABPP, nimbolide probe labeling of pure RNF114; type: binding; details: probe 10 μM, 1 h

hit from covalent ligand screen against RNF114 [3]: promising hit
SMILES: C=CC(=O)NCc1ccc(C(=O)Nc2sc(-c3ccccc3)c(C)c2C(=O)N2CCCCC2)cc1 [EN62]
231MFP breast cancer cell survival [1]: impaired | RNF114 autoubiquitination activity [2]: inhibited | proteome-wide selectivity [4]: exhibited proteome-wide selectivity | 231MFP tumor xenograft growth [5]: attenuated

potency to be useful as an RNF4 recruiter [6]: did not show sufficient potency | hits from covalent ligand screen against IA-rhodamine labeling of RNF4 ([6]; covalent ligands 50 μM, 30 min pre-incubation, IA-rhodamine 250 nM 1 h): potential hits | RNF4 autoubiquitination activity [7]: does not inhibit
SMILES: O=C(CCl)Nc1ccc(Oc2ccccc2)cc1 [TRH 1-23]
inhibition of IA-rhodamine labeling of RNF4 ([6]; confirmation of screening hits): reproducible and dose-responsive inhibition | site-of-modification within RNF4 [8]: covalently modified either, but not both, of the two zinc-coordinating cysteines CI32 and CI35

probe labeling of pure RNF114 [9]: reacts with pure human RNF114
SMILES: C#CCNC(=O)c1ccc(-c2occc2[C@@H]2C[C@H]3O[C@@H]4[C@@H]5OC(=O)[C@]6(C)C=CC(=O)[C@](C)([C@@H](CC(=O)OC)[C@]4(C)C3=C2C)[C@@H]56)cc1 [nimbolide probe]
